Data published in article PMC8426237, “A first-in-human phase I study of TAS0728, an oral covalent binding inhibitor of HER2, in patients with advanced solid tumors with HER2 or HER3 aberrations” (Investigational New Drugs, 2021).

Test: Phase I safety assessment: adverse events (CTCAE v5.0) in patients
[1] = 50-mg dose level cohort, 2 of 3
[2] = Dose Level 1: 50 mg BID (N = 3)
[3] = Dose Level 2: 100 mg BID (N = 3)
[4] = Dose Level 3: 200 mg BID (N = 7)

Method: A DLT was defined as a study treatment-related adverse event (TRAE), according to the Common Terminology Criteria for Adverse Events (CTCAE, Version 5.0), with qualifying criteria for certain DLTs (e.g., Grade ≥ 3 diarrhea, was included as a DLT only if lasting >48 h and unresponsive to intensive antidiarrheal medication).
Patients were closely monitored for these potential toxicities during the current study. Safety assessments included recording of AEs and serious AEs (SAEs) from the time of signing the study informed consent form to 30 days after the last dose of study medication. Safety parameters including laboratory evaluations (hematology, coagulation, chemistry, and urinalysis), vital sign measurements and body weight, electrocardiogram (ECG) recordings, ECOG performance status, echocardiogram or multi-gated acquisition (MUGA), and physical examination were assessed at screening, during the study and at 30 days following the last dose. The use of concomitant medications was permitted and details for such medications were recorded.

C=CC(=O)N1CCC[C@@H](n2nc(C(=O)Nc3ccc(CC(=O)N(C)C)c(C)c3C)c3c(N)ncnc32)C1 [TAS0728]
Patients with AEs (50 mg BID (N = 3)): 3 (100) n, (%)
Patients with AEs that had an outcome of death (50 mg BID (N = 3)): 0 n, (%)
Patients with AEs that led to study treatment discontinuation (50 mg BID (N = 3)): 0 n, (%)
Patients with Grade ≥ 3 AEs (50 mg BID (N = 3)): 2 (66.7) n, (%)
Patients with SAEs (50 mg BID (N = 3)): 1 (33.3) n, (%)
Patients with treatment-related AEs (50 mg BID (N = 3)): 3 (100) n, (%)
Patients with treatment-related and Grade ≥ 3 AEs (50 mg BID (N = 3)): 0 n, (%)
Patients with AEs (100 mg BID (N = 3)): 3 (100) n, (%)
Patients with AEs that had an outcome of death (100 mg BID (N = 3)): 0 n, (%)
Patients with AEs that led to study treatment discontinuation (100 mg BID (N = 3)): 1 (33.3) n, (%)
Patients with Grade ≥ 3 AEs (100 mg BID (N = 3)): 0 n, (%)
Patients with SAEs (100 mg BID (N = 3)): 0 n, (%)
Patients with treatment-related AEs (100 mg BID (N = 3)): 3 (100) n, (%)
Patients with treatment-related and Grade ≥ 3 AEs (100 mg BID (N = 3)): 0 n, (%)
Patients with AEs (150 mg BID (N = 6)): 6 (100) n, (%)
Patients with AEs that had an outcome of death (150 mg BID (N = 6)): 1 (16.7) n, (%)
Patients with AEs that led to study treatment discontinuation (150 mg BID (N = 6)): 1 (16.7) n, (%)
Patients with Grade ≥ 3 AEs (150 mg BID (N = 6)): 3 (50.0) n, (%)
Patients with SAEs (150 mg BID (N = 6)): 4 (66.7) n, (%)
Patients with treatment-related AEs (150 mg BID (N = 6)): 5 (83.3) n, (%)
Patients with treatment-related and Grade ≥ 3 AEs (150 mg BID (N = 6)): 2 (33.3) n, (%)
Patients with fatal cardiac arrest (Grade 5) (150 mg BID, after 1 cycle (21 days)): one
Patients with AEs (200 mg BID (N = 7)): 7 (100) n, (%)
Patients with AEs that had an outcome of death (200 mg BID (N = 7)): 0 n, (%)
Patients with AEs that led to study treatment discontinuation (200 mg BID (N = 7)): 1 (14.3) n, (%)
Patients with Grade ≥ 3 AEs (200 mg BID (N = 7)): 4 (57.1) n, (%)
Patients with SAEs (200 mg BID (N = 7)): 3 (42.9) n, (%)
Patients with treatment-related AEs (200 mg BID (N = 7)): 6 (85.7) n, (%)
Patients with treatment-related and Grade ≥ 3 AEs (200 mg BID (N = 7)): 4 (57.1) n, (%)
Patients who worsened to an ECOG status of 2 (1 in each of the 200-mg and 150-mg BID cohorts, ECOG 1 at baseline): 2
Treatment discontinuation due to AEs (1 patient of 19): 5.3%
Treatment discontinuation due to fatal cardiac arrest (1 patient of 19): 5.3%
Patients with diarrhea at a severity ≥Grade 3 (50-mg dose level cohort): 1
Patients with diarrhea [1]: 66.7%
Patients with hyperuricemia [1]: 66.7%
Patients with diarrhea (all Grade 1 or Grade 2) (100-mg dose level cohort, all 3): 100%
Patients with diarrhea at a severity ≥Grade 3 (200-mg dose): 3
Patients with asthenia (200-mg dose, 2/7): 28.6%
Patients with decreased appetite (200-mg dose, 2/7): 28.6%
Patients with dry skin (200-mg dose, 2/7): 28.6%
Patients with edema peripheral (200-mg dose, 2/7): 28.6%
Patients with hypokalemia (200-mg dose, 2/7): 28.6%
Patients with nausea (200-mg dose, 2/7): 28.6%
Patients with vomiting (200-mg dose, 2/7): 28.6%
Patients with cough (200-mg dose, 3/7): 42.9%
Patients with dermatitis acneiform (200-mg dose, 3/7): 42.9%
Patients with fatigue (200-mg dose, 3/7): 42.9%
Patients with pyrexia (200-mg dose, 3/7): 42.9%
Patients with anemia (200-mg dose, 5/7): 71.4%
Patients with diarrhea (200-mg dose, 6 of 7): 85.7%
Adverse events experienced in ≥10% patients, Grade 1 [2]: 3 (100) n (%)
Adverse events experienced in ≥10% patients, Grade 2 [2]: 1 (33.3) n (%)
Adverse events experienced in ≥10% patients, Grade 3 [2]: 2 (66.7) n (%)
Adverse events experienced in ≥10% patients, Grade 4 [2]: 1 (33.3) n (%)
Adverse events experienced in ≥10% patients, Grade 5 [2]: 0 n (%)
Adverse events experienced in ≥10% patients, Total [2]: 3 (100) n (%)
Adverse events experienced in ≥10% patients, ≥Grade 3 [2]: 2 (66.7) n (%)
Diarrhea, Grade 1 [2]: 2 (66.7) n (%)
Diarrhea, Grade 2 [2]: 1 (33.3) n (%)
Diarrhea, Grade 3 [2]: 1 (33.3) n (%)
Diarrhea, Grade 4 [2]: 0 n (%)
Diarrhea, Grade 5 [2]: 0 n (%)
Diarrhea, Total [2]: 2 (66.7) n (%)
Diarrhea, ≥Grade 3 [2]: 1 (33.3) n (%)
Hyperuricemia, Grade 1 [2]: 2 (66.7) n (%)
Hyperuricemia, Grade 2 [2]: 0 n (%)
Hyperuricemia, Grade 3 [2]: 0 n (%)
Hyperuricemia, Grade 4 [2]: 0 n (%)
Hyperuricemia, Grade 5 [2]: 0 n (%)
Hyperuricemia, Total [2]: 2 (66.7) n (%)
Hyperuricemia, ≥Grade 3 [2]: 0 n (%)
Adverse events experienced in ≥10% patients, Grade 1 [3]: 3 (100) n (%)
Adverse events experienced in ≥10% patients, Grade 2 [3]: 2 (66.7) n (%)
Adverse events experienced in ≥10% patients, Grade 3 [3]: 0 n (%)
Adverse events experienced in ≥10% patients, Grade 4 [3]: 0 n (%)
Adverse events experienced in ≥10% patients, Grade 5 [3]: 0 n (%)
Adverse events experienced in ≥10% patients, Total [3]: 3 (100) n (%)
Adverse events experienced in ≥10% patients, ≥Grade 3 [3]: 0 n (%)
Diarrhea, Grade 1 [3]: 3 (100) n (%)
Diarrhea, Grade 2 [3]: 1 (33.3) n (%)
Diarrhea, Grade 3 [3]: 0 n (%)
Diarrhea, Grade 4 [3]: 0 n (%)
Diarrhea, Grade 5 [3]: 0 n (%)
Diarrhea, Total [3]: 3 (100) n (%)
Diarrhea, ≥Grade 3 [3]: 0 n (%)
Adverse events experienced in ≥10% patients, Grade 1 [4]: 6 (85.7) n (%)
Adverse events experienced in ≥10% patients, Grade 2 [4]: 7 (100) n (%)
Adverse events experienced in ≥10% patients, Grade 3 [4]: 4 (57.1) n (%)
Adverse events experienced in ≥10% patients, Grade 4 [4]: 0 n (%)
Adverse events experienced in ≥10% patients, Grade 5 [4]: 0 n (%)
Adverse events experienced in ≥10% patients, Total [4]: 7 (100) n (%)
Adverse events experienced in ≥10% patients, ≥Grade 3 [4]: 4 (57.1) n (%)
Anemia, Grade 1 [4]: 2 (28.6) n (%)
Anemia, Grade 2 [4]: 3 (42.9) n (%)
Anemia, Grade 3 [4]: 1 (14.3) n (%)
Anemia, Grade 4 [4]: 0 n (%)
Anemia, Grade 5 [4]: 0 n (%)
Anemia, Total [4]: 5 (71.4) n (%)
Anemia, ≥Grade 3 [4]: 1 (14.3) n (%)
Asthenia, Grade 1 [4]: 2 (28.6) n (%)
Asthenia, Grade 2 [4]: 1 (14.3) n (%)
Asthenia, Grade 3 [4]: 0 n (%)
Asthenia, Grade 4 [4]: 0 n (%)
Asthenia, Grade 5 [4]: 0 n (%)
Asthenia, Total [4]: 2 (28.6) n (%)
Asthenia, ≥Grade 3 [4]: 0 n (%)
Cough, Grade 1 [4]: 3 (42.9) n (%)
Cough, Grade 2 [4]: 0 n (%)
Cough, Grade 3 [4]: 0 n (%)
Cough, Grade 4 [4]: 0 n (%)
Cough, Grade 5 [4]: 0 n (%)
Cough, Total [4]: 3 (42.9) n (%)
Cough, ≥Grade 3 [4]: 0 n (%)
Decreased appetite, Grade 1 [4]: 1 (14.3) n (%)
Decreased appetite, Grade 2 [4]: 1 (14.3) n (%)
Decreased appetite, Grade 3 [4]: 0 n (%)
Decreased appetite, Grade 4 [4]: 0 n (%)
Decreased appetite, Grade 5 [4]: 0 n (%)
Decreased appetite, Total [4]: 2 (28.6) n (%)
Decreased appetite, ≥Grade 3 [4]: 0 n (%)
Dermatitis acneiform, Grade 1 [4]: 2 (28.6) n (%)
Dermatitis acneiform, Grade 2 [4]: 1 (14.3) n (%)
Dermatitis acneiform, Grade 3 [4]: 0 n (%)
Dermatitis acneiform, Grade 4 [4]: 0 n (%)
Dermatitis acneiform, Grade 5 [4]: 0 n (%)
Dermatitis acneiform, Total [4]: 3 (42.9) n (%)
